Assays:
[1] = target: Serine/threonine-protein kinase MARK1 (Homo sapiens) (UniProt Q9P0L2); details: Compound concentration 1000.0 nM
[2] = target: Phosphatidylinositol 4-phosphate 3-kinase C2 domain-containing subunit alpha (Homo sapiens) (UniProt O00443); assay: PIK3C2A Invitrogen selectivity data (BI); details: Compound concentration 3.0 uM
[3] = target: Estrogen receptor (Homo sapiens) (UniProt P03372); assay: ER_ALPHA_AGON Cerep selectivity data (BI); details: filed as agonist, Compound concentration 20.0 uM
Chain of Estrogen receptor (Homo sapiens) (P03372 whole entry): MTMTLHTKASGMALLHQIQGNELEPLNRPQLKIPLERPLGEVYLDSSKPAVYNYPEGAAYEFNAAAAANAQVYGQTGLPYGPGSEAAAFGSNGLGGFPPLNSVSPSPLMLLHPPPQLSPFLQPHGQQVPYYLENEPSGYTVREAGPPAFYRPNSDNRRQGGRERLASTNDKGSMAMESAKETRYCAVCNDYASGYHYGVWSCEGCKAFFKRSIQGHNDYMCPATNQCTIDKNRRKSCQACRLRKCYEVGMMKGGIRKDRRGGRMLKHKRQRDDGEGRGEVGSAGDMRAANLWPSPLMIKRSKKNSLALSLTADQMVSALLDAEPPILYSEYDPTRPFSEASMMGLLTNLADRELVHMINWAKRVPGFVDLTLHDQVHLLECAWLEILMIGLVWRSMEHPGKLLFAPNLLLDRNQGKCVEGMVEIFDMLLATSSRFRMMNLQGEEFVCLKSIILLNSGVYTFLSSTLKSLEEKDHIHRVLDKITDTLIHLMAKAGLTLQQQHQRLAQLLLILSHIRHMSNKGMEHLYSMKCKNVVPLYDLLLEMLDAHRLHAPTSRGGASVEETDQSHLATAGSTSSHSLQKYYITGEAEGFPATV

[4] = target: T1, Aurora kinase C (Homo sapiens) (UniProt Q9UQB9); assay: AURKC Invitrogen selectivity data (BI); details: Compound concentration 3.0 uM
T1 sequence (whole entry): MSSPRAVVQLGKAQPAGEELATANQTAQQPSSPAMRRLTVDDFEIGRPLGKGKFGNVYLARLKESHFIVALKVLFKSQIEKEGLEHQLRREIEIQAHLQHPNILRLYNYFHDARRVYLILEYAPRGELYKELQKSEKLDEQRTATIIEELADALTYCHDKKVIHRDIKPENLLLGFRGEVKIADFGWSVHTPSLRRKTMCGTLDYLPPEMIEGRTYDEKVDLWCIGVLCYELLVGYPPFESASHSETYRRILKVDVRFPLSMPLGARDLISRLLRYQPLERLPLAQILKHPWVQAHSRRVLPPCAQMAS

[5] = target: Glutamate receptor ionotropic, AMPA (Rattus norvegicus) (UniProt P19491+P19492+P19493+P19490); assay: AMPA/R Cerep selectivity data (BI); format: protein-complex assay; details: Compound concentration 20.0 uM
[6] = target: Melatonin receptor type 1A (Homo sapiens) (UniProt P48039); assay: MT1 (ML1A) Cerep selectivity data (BI); details: Compound concentration 20.0 uM
Chain of Melatonin receptor type 1A (Homo sapiens) (P48039 whole entry): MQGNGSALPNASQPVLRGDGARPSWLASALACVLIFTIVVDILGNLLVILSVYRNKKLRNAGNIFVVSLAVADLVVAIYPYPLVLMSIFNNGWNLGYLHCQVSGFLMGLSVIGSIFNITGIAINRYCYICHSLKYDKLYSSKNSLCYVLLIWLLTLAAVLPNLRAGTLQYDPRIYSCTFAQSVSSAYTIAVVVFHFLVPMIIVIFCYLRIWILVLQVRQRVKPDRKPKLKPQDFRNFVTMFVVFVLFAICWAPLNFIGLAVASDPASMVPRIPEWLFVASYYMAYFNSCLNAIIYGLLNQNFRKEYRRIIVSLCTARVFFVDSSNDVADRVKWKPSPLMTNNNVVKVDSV

[7] = test system: Mast/stem cell growth factor receptor Kit (Homo sapiens), P10721 [T670I]; assay: KIT T670I Invitrogen selectivity data (BI); details: Compound concentration 3.0 uM
[8] = target: PI3-kinase p110-alpha/p85-alpha (Homo sapiens) (UniProt P27986+P42336); assay: PIK3CAPIK3R1 Invitrogen selectivity data (BI); format: protein-complex assay; details: Compound concentration 3.0 uM
[9] = target: 5-hydroxytryptamine receptor 4 (Homo sapiens) (UniProt Q13639); assay: 5HT4EH_ANTAG Cerep selectivity data (BI); details: filed as antagonist, Compound concentration 20.0 uM
Chain of 5-hydroxytryptamine receptor 4 (Homo sapiens) (Q13639 whole entry): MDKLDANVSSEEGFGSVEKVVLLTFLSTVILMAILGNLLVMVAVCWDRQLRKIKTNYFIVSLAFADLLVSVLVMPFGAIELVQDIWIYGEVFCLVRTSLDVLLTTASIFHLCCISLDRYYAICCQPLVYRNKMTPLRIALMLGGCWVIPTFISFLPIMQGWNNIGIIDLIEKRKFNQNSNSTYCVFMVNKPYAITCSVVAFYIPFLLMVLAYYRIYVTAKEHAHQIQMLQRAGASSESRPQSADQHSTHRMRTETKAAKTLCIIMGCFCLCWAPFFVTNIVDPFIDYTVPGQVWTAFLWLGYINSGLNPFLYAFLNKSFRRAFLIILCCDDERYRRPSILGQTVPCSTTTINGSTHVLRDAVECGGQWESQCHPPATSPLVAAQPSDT

[10] = target: Prostaglandin G/H synthase 2 (Homo sapiens) (UniProt P35354); assay: COX2_HU Cerep selectivity data (BI); details: Compound concentration 20.0 uM
Chain of Prostaglandin G/H synthase 2 (Homo sapiens) (P35354 whole entry): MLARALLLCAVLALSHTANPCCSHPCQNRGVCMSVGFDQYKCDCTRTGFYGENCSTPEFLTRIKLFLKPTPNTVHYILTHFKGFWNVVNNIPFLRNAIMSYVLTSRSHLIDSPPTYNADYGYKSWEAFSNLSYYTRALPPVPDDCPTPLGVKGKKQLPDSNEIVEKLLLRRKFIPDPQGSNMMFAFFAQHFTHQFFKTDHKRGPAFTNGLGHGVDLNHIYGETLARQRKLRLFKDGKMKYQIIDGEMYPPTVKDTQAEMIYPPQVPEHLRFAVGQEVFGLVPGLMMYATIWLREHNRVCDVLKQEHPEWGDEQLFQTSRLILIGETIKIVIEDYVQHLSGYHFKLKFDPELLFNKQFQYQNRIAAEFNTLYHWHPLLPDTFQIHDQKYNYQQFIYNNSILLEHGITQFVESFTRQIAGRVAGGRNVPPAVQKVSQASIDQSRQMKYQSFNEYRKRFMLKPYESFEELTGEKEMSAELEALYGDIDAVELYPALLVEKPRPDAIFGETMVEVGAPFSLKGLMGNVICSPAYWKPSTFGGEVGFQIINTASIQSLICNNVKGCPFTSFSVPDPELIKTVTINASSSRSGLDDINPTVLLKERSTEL

[11] = target: T2, Serine/threonine-protein kinase TAO2 (Homo sapiens) (UniProt Q9UL54); assay: TAOK2 Invitrogen selectivity data (BI); details: Compound concentration 3.0 uM
T2 sequence (whole entry): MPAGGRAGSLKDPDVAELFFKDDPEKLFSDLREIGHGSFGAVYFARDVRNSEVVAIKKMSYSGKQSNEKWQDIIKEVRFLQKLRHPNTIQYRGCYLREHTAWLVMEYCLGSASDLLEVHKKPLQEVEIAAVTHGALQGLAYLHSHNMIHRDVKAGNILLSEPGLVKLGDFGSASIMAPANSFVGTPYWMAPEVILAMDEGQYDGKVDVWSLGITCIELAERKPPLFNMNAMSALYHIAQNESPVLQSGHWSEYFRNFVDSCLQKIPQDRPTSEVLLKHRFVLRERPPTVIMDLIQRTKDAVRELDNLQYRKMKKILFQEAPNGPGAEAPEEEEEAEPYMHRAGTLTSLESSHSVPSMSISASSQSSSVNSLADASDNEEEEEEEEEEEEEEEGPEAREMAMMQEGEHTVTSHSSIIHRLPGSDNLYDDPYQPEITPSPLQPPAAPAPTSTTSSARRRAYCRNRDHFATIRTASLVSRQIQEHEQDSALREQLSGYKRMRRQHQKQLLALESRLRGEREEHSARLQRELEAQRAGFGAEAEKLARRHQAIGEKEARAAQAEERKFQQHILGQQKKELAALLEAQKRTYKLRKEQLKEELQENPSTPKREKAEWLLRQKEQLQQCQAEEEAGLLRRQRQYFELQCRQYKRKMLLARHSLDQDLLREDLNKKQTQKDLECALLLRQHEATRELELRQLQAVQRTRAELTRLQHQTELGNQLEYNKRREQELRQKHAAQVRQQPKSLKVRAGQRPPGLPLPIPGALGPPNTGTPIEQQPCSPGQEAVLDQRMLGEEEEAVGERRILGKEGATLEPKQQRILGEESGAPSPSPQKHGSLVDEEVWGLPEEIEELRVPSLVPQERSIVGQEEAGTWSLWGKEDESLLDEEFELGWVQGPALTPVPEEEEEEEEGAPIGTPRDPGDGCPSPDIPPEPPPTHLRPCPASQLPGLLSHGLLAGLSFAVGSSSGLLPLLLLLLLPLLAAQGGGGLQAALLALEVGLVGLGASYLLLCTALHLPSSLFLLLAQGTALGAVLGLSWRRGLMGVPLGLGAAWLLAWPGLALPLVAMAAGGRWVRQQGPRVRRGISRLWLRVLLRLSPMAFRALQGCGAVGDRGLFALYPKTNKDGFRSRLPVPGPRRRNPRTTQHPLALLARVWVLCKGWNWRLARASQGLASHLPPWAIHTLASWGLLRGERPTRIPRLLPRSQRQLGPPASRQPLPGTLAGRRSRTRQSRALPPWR

[12] = target: T3, 5-hydroxytryptamine receptor 3A (Homo sapiens) (UniProt P46098); assay: 5HT3/H Cerep selectivity data (BI); details: Compound concentration 20.0 uM
T3 sequence (whole entry): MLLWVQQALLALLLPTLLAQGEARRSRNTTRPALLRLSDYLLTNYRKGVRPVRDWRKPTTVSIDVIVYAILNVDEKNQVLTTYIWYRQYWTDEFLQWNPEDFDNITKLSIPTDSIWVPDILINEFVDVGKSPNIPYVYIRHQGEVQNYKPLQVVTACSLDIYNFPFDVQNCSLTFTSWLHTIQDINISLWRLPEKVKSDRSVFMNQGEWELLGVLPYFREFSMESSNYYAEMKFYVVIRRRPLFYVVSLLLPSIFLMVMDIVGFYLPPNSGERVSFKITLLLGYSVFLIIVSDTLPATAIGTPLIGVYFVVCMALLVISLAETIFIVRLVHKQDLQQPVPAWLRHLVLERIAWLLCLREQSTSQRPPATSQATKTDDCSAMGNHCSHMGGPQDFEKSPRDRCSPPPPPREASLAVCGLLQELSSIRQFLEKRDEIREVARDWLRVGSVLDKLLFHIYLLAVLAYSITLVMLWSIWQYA

[13] = target: Neuropeptide Y receptor type 2 (Homo sapiens) (UniProt P49146); assay: Y2/HU Eurofins-Panlabs selectivity data (BI); details: Compound concentration 10.0 uM
Chain of Neuropeptide Y receptor type 2 (Homo sapiens) (P49146 whole entry): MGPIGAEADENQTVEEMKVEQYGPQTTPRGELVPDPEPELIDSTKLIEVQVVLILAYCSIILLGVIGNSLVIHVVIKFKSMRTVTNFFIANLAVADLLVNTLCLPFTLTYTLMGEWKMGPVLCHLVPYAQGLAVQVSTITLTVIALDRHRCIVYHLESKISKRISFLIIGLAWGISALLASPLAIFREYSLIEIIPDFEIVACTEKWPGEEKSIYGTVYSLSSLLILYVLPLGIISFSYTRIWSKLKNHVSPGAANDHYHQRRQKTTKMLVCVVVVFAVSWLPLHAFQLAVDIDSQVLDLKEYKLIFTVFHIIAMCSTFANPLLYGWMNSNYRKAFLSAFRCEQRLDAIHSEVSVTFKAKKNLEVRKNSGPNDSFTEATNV

Measured: residual activity

Chain of Serine/threonine-protein kinase MARK1 (Homo sapiens) (Q9P0L2 whole entry, looked up, the tested form may be a part): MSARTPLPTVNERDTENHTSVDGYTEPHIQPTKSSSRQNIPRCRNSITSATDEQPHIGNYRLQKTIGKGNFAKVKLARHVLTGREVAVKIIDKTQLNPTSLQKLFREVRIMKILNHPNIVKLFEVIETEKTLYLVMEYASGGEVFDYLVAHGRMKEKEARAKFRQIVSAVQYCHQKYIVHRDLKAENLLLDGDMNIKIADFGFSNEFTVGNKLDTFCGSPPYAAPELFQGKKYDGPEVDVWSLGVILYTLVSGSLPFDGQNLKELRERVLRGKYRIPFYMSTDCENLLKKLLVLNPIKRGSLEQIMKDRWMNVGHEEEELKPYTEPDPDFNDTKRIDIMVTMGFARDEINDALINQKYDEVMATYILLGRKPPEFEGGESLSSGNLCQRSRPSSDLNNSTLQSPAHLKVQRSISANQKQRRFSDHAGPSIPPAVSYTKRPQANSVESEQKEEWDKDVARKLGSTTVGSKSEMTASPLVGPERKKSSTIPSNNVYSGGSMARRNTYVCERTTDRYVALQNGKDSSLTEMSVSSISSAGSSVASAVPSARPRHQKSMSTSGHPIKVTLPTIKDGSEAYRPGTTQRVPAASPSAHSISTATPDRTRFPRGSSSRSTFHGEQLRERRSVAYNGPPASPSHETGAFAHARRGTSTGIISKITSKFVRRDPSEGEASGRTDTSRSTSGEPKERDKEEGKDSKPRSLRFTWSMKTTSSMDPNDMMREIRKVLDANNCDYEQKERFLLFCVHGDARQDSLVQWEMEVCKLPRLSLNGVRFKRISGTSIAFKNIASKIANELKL
Chain of Phosphatidylinositol 4-phosphate 3-kinase C2 domain-containing subunit alpha (Homo sapiens) (O00443 whole entry, the tested form may be a part): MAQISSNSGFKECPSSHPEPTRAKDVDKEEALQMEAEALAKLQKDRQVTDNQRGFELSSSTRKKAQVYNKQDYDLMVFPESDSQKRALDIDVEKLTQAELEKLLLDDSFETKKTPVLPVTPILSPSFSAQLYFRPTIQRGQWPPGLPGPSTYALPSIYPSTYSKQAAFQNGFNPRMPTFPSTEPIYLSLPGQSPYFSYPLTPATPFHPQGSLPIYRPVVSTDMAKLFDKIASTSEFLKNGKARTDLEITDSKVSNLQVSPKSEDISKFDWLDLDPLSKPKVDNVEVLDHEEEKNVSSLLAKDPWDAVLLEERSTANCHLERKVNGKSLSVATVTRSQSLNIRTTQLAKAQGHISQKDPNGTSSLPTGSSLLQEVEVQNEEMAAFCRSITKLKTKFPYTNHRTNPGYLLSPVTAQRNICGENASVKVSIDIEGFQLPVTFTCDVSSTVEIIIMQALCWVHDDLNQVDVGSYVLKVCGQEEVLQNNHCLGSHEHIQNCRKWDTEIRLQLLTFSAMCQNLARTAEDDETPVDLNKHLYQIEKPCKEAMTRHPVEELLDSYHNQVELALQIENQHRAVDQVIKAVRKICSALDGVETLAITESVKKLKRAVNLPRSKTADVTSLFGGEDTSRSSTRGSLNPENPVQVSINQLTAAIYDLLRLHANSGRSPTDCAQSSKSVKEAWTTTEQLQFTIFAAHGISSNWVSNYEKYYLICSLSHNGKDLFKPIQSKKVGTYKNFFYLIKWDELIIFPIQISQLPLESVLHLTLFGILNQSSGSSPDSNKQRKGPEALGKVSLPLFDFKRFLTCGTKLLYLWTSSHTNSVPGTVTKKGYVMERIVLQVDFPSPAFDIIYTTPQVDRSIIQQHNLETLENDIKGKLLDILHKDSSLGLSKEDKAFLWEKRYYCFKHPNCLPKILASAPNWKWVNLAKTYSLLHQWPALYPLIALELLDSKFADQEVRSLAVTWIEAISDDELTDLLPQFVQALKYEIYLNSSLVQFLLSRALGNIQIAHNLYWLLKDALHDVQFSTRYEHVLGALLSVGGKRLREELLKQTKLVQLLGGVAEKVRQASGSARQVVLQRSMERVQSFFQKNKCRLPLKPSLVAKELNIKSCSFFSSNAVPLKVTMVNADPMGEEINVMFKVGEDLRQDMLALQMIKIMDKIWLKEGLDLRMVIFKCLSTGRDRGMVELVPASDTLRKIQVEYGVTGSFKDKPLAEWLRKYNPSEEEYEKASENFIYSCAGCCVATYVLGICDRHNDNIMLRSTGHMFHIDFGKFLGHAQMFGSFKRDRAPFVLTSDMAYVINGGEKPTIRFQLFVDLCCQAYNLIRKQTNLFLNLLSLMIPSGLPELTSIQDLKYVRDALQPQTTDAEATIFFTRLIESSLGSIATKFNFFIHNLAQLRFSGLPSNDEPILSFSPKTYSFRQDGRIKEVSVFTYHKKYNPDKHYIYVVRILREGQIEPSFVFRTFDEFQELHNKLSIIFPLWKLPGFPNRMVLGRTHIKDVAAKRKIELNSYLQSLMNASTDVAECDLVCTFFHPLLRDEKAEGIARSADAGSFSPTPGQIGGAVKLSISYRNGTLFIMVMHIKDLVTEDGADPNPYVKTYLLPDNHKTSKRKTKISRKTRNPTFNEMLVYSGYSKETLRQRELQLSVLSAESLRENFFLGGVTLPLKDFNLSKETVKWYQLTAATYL

CN(C)C(=O)Cn1cc(-c2nc(C3(c4ccc(-c5cnc(N)nc5)cc4)CC3)no2)cn1 [BI 0153]
inactive: [1] 100%

CN(C)C(=O)Cn1cc(-c2nc([C@@](C)(c3ccc(-c4cnc(N)nc4)cc3)C3CC3)no2)cn1 [BI 665915]
inactive: [2] 104% | [3] 96% | [4] 93% | [5] 105% | [6] 91% | [7] 93% | [8] 104% | [9] 111% | [10] 64% | [11] 100% | [12] 100% | [13] 97%

Source: ChEMBL document CHEMBL4507276 (2021)
